From ChEMBL document CHEMBL5244230, “Artemisinin-derived hybrids and their anticancer activity” (Eur J Med Chem, 2020)

What follows are compounds tested on HeLa (assay: Antiproliferative activity against human HeLa cells assessed as reduction in cell viability measured for 72 hrs by MTT assay). Conditions: not given.
Type: functional, cell-based
In the case of `C[C@H]1[C@@H](NC(=O)COCc2ccc(C(=O)/C=C/c3cccc(OC(F)(F)F)c3)cc2)O[C@@H]2O[C@@]3(C)CC[C@H]4[C@H](C)CC[C@@H]1[C@@]24OO3`, the IC50 is reported as 90 nM. `C[C@H]1[C@H](NC(=O)COCc2ccc(C(=O)/C=C/c3ccc(F)cc3)cc2)O[C@@H]2O[C@@]3(C)CC[C@H]4[C@H](C)CC[C@@H]1[C@@]24OO3` gave an IC50 of 100 nM. In the case of `COc1cccc(C(=O)/C=C/c2ccc(COCC(=O)N[C@H]3O[C@@H]4O[C@@]5(C)CC[C@H]6[C@H](C)CC[C@@H]([C@H]3C)[C@@]46OO5)cc2)c1`, the IC50 is reported as 1700 nM. `C[C@H]1[C@H](NC(=O)COCc2ccc(C(=O)/C=C/c3ccc(S(C)(=O)=O)cc3)cc2)O[C@@H]2O[C@@]3(C)CC[C@H]4[C@H](C)CC[C@@H]1[C@@]24OO3` was tested, and the IC50 was 100 nM. With `C[C@H]1[C@@H](NC(=O)COCc2ccc(/C=C/C(=O)c3ccccc3)cc2)O[C@@H]2O[C@@]3(C)CC[C@H]4[C@H](C)CC[C@@H]1[C@@]24OO3` the IC50 was 1700 nM. `C[C@H]1[C@@H](NC(=O)COCc2ccc(/C=C/C(=O)c3ccc(F)cc3)cc2)O[C@@H]2O[C@@]3(C)CC[C@H]4[C@H](C)CC[C@@H]1[C@@]24OO3` gave an IC50 of 1700 nM. With `C[C@H]1[C@H](NC(=O)COCc2ccc(C(=O)/C=C/c3c(Cl)cccc3Cl)cc2)O[C@@H]2O[C@@]3(C)CC[C@H]4[C@H](C)CC[C@@H]1[C@@]24OO3` the IC50 was 100 nM. Work on `C[C@H]1[C@@H](NC(=O)COCc2ccc(C(=O)/C=C/c3ccc(OC(F)(F)F)cc3)cc2)O[C@@H]2O[C@@]3(C)CC[C@H]4[C@H](C)CC[C@@H]1[C@@]24OO3` yielded an IC50 of 90 nM.

Each compound was assayed on HT-29 (assay: Antiproliferative activity against human HT-29 cells assessed as reduction in cell viability measured for 72 hrs by MTT assay). Conditions: HT-29, 72 h.
Type: functional, cell-based
For `C[C@H]1[C@@H](NC(=O)COCc2ccc(C(=O)/C=C/c3cccc(OC(F)(F)F)c3)cc2)O[C@@H]2O[C@@]3(C)CC[C@H]4[C@H](C)CC[C@@H]1[C@@]24OO3`, the IC50 was 90 nM. Work on `C[C@H]1[C@H](NC(=O)COCc2ccc(C(=O)/C=C/c3ccc(F)cc3)cc2)O[C@@H]2O[C@@]3(C)CC[C@H]4[C@H](C)CC[C@@H]1[C@@]24OO3` yielded an IC50 of 100 nM. Compound `COc1cccc(C(=O)/C=C/c2ccc(COCC(=O)N[C@H]3O[C@@H]4O[C@@]5(C)CC[C@H]6[C@H](C)CC[C@@H]([C@H]3C)[C@@]46OO5)cc2)c1` has an IC50 of 1700 nM. Work on `C[C@H]1[C@H](NC(=O)COCc2ccc(C(=O)/C=C/c3ccc(S(C)(=O)=O)cc3)cc2)O[C@@H]2O[C@@]3(C)CC[C@H]4[C@H](C)CC[C@@H]1[C@@]24OO3` yielded an IC50 of 100 nM. `C[C@H]1[C@@H](NC(=O)COCc2ccc(/C=C/C(=O)c3ccccc3)cc2)O[C@@H]2O[C@@]3(C)CC[C@H]4[C@H](C)CC[C@@H]1[C@@]24OO3` showed an IC50 of 1700 nM. `C[C@H]1[C@@H](NC(=O)COCc2ccc(/C=C/C(=O)c3ccc(F)cc3)cc2)O[C@@H]2O[C@@]3(C)CC[C@H]4[C@H](C)CC[C@@H]1[C@@]24OO3` was tested, and the IC50 was 1700 nM. Compound `C[C@H]1[C@H](NC(=O)COCc2ccc(C(=O)/C=C/c3c(Cl)cccc3Cl)cc2)O[C@@H]2O[C@@]3(C)CC[C@H]4[C@H](C)CC[C@@H]1[C@@]24OO3` has an IC50 of 100 nM. With `C[C@H]1[C@@H](NC(=O)COCc2ccc(C(=O)/C=C/c3ccc(OC(F)(F)F)cc3)cc2)O[C@@H]2O[C@@]3(C)CC[C@H]4[C@H](C)CC[C@@H]1[C@@]24OO3` the IC50 was 90 nM.

These compounds were tested on NCI-H460 (assay: Antiproliferative activity against human NCI-H460 cells assessed as reduction in cell viability measured for 72 hrs by MTT assay). Conditions: NCI-H460, 72 h.
Type: functional, cell-based
For `C[C@H]1[C@@H](NC(=O)COCc2ccc(C(=O)/C=C/c3cccc(OC(F)(F)F)c3)cc2)O[C@@H]2O[C@@]3(C)CC[C@H]4[C@H](C)CC[C@@H]1[C@@]24OO3`, the IC50 was 90 nM. In the case of `C[C@H]1[C@H](NC(=O)COCc2ccc(C(=O)/C=C/c3ccc(F)cc3)cc2)O[C@@H]2O[C@@]3(C)CC[C@H]4[C@H](C)CC[C@@H]1[C@@]24OO3`, the IC50 is reported as 100 nM. Work on `COc1cccc(C(=O)/C=C/c2ccc(COCC(=O)N[C@H]3O[C@@H]4O[C@@]5(C)CC[C@H]6[C@H](C)CC[C@@H]([C@H]3C)[C@@]46OO5)cc2)c1` yielded an IC50 of 1700 nM. `C[C@H]1[C@H](NC(=O)COCc2ccc(C(=O)/C=C/c3ccc(S(C)(=O)=O)cc3)cc2)O[C@@H]2O[C@@]3(C)CC[C@H]4[C@H](C)CC[C@@H]1[C@@]24OO3` showed an IC50 of 100 nM. `C[C@H]1[C@@H](NC(=O)COCc2ccc(/C=C/C(=O)c3ccccc3)cc2)O[C@@H]2O[C@@]3(C)CC[C@H]4[C@H](C)CC[C@@H]1[C@@]24OO3` was tested, and the IC50 was 1700 nM. For `C[C@H]1[C@@H](NC(=O)COCc2ccc(/C=C/C(=O)c3ccc(F)cc3)cc2)O[C@@H]2O[C@@]3(C)CC[C@H]4[C@H](C)CC[C@@H]1[C@@]24OO3`, the IC50 was 1700 nM. With `C[C@H]1[C@H](NC(=O)COCc2ccc(C(=O)/C=C/c3c(Cl)cccc3Cl)cc2)O[C@@H]2O[C@@]3(C)CC[C@H]4[C@H](C)CC[C@@H]1[C@@]24OO3` the IC50 was 100 nM. Compound `C[C@H]1[C@@H](NC(=O)COCc2ccc(C(=O)/C=C/c3ccc(OC(F)(F)F)cc3)cc2)O[C@@H]2O[C@@]3(C)CC[C@H]4[C@H](C)CC[C@@H]1[C@@]24OO3` has an IC50 of 90 nM.

The compounds below were run on A549 (assay: Antiproliferative activity against human A549 cells assessed as reduction in cell viability measured for 72 hrs by MTT assay). Conditions: A549, 72 h.
Type: functional, cell-based
For `C[C@H]1[C@@H](NC(=O)COCc2ccc(C(=O)/C=C/c3cccc(OC(F)(F)F)c3)cc2)O[C@@H]2O[C@@]3(C)CC[C@H]4[C@H](C)CC[C@@H]1[C@@]24OO3`, the IC50 was 90 nM. `C[C@H]1[C@H](NC(=O)COCc2ccc(C(=O)/C=C/c3ccc(F)cc3)cc2)O[C@@H]2O[C@@]3(C)CC[C@H]4[C@H](C)CC[C@@H]1[C@@]24OO3` was tested, and the IC50 was 100 nM. Compound `COc1cccc(C(=O)/C=C/c2ccc(COCC(=O)N[C@H]3O[C@@H]4O[C@@]5(C)CC[C@H]6[C@H](C)CC[C@@H]([C@H]3C)[C@@]46OO5)cc2)c1` has an IC50 of 1700 nM. `C[C@H]1[C@H](NC(=O)COCc2ccc(C(=O)/C=C/c3ccc(S(C)(=O)=O)cc3)cc2)O[C@@H]2O[C@@]3(C)CC[C@H]4[C@H](C)CC[C@@H]1[C@@]24OO3` was tested, and the IC50 was 100 nM. `C[C@H]1[C@@H](NC(=O)COCc2ccc(/C=C/C(=O)c3ccccc3)cc2)O[C@@H]2O[C@@]3(C)CC[C@H]4[C@H](C)CC[C@@H]1[C@@]24OO3` showed an IC50 of 1700 nM. `C[C@H]1[C@@H](NC(=O)COCc2ccc(/C=C/C(=O)c3ccc(F)cc3)cc2)O[C@@H]2O[C@@]3(C)CC[C@H]4[C@H](C)CC[C@@H]1[C@@]24OO3` showed an IC50 of 1700 nM. For `C[C@H]1[C@H](NC(=O)COCc2ccc(C(=O)/C=C/c3c(Cl)cccc3Cl)cc2)O[C@@H]2O[C@@]3(C)CC[C@H]4[C@H](C)CC[C@@H]1[C@@]24OO3`, the IC50 was 100 nM. In the case of `C[C@H]1[C@@H](NC(=O)COCc2ccc(C(=O)/C=C/c3ccc(OC(F)(F)F)cc3)cc2)O[C@@H]2O[C@@]3(C)CC[C@H]4[C@H](C)CC[C@@H]1[C@@]24OO3`, the IC50 is reported as 90 nM.

These compounds were tested on MDA-MB-231 (assay: Antiproliferative activity against human MDA-MB-231 cells assessed as reduction in cell viability measured for 72 hrs by MTT assay). Conditions: MDA-MB-231, 72 h.
Type: functional, cell-based
Work on `C[C@H]1[C@@H](NC(=O)COCc2ccc(C(=O)/C=C/c3cccc(OC(F)(F)F)c3)cc2)O[C@@H]2O[C@@]3(C)CC[C@H]4[C@H](C)CC[C@@H]1[C@@]24OO3` yielded an IC50 of 90 nM. Compound `C[C@H]1[C@H](NC(=O)COCc2ccc(C(=O)/C=C/c3ccc(F)cc3)cc2)O[C@@H]2O[C@@]3(C)CC[C@H]4[C@H](C)CC[C@@H]1[C@@]24OO3` has an IC50 of 100 nM. For `COc1cccc(C(=O)/C=C/c2ccc(COCC(=O)N[C@H]3O[C@@H]4O[C@@]5(C)CC[C@H]6[C@H](C)CC[C@@H]([C@H]3C)[C@@]46OO5)cc2)c1`, the IC50 was 1700 nM. With `C[C@H]1[C@H](NC(=O)COCc2ccc(C(=O)/C=C/c3ccc(S(C)(=O)=O)cc3)cc2)O[C@@H]2O[C@@]3(C)CC[C@H]4[C@H](C)CC[C@@H]1[C@@]24OO3` the IC50 was 100 nM. `C[C@H]1[C@@H](NC(=O)COCc2ccc(/C=C/C(=O)c3ccccc3)cc2)O[C@@H]2O[C@@]3(C)CC[C@H]4[C@H](C)CC[C@@H]1[C@@]24OO3` showed an IC50 of 1700 nM. For `C[C@H]1[C@@H](NC(=O)COCc2ccc(/C=C/C(=O)c3ccc(F)cc3)cc2)O[C@@H]2O[C@@]3(C)CC[C@H]4[C@H](C)CC[C@@H]1[C@@]24OO3`, the IC50 was 1700 nM. `C[C@H]1[C@H](NC(=O)COCc2ccc(C(=O)/C=C/c3c(Cl)cccc3Cl)cc2)O[C@@H]2O[C@@]3(C)CC[C@H]4[C@H](C)CC[C@@H]1[C@@]24OO3` was tested, and the IC50 was 100 nM. `C[C@H]1[C@@H](NC(=O)COCc2ccc(C(=O)/C=C/c3ccc(OC(F)(F)F)cc3)cc2)O[C@@H]2O[C@@]3(C)CC[C@H]4[C@H](C)CC[C@@H]1[C@@]24OO3` was tested, and the IC50 was 90 nM.
